Key:
PDE9 = PDE9 (Homo sapiens (Human), UniProt O76083); assay: PDE9-inhibiting activity (SPA enzyme assay); assay type: biochemical; conditions: IC50 values; cGMP 1 μM substrate, 30° C.; read-out: PDE9 inhibition
Protocol: The PDE9-inhibiting activity was measured by the following method. That is, to a buffer solution containing tris(hydroxymethyl)aminomethane-hydrochloric acid (40 mM, pH 8.0), magnesium chloride (5 mM), and 2-mercaptoethanol (4 mM) were added cGMP (1 μM) and ^3H-cGMP (0.33 μCi/ml) to give a substrate buffer solution. A test substance solution and an enzyme solution which had been adjusted to an optimal concentration were added thereto to perform a reaction at 30° C. The enzyme reaction was stopped by the addition of Scintillation Proximity Assay (SPA) Beads (Perkin Elmer, USA) containing 5 mM 3-isobutyl-1-methylxanthine (IBMX). For the enzyme activity, the amount of 5′-GMP, which is a reaction degradation product bound to SPA beads, was measured with a TopCount microplate reader (Hewlett Packard, USA). The inhibitory rate was calculated by taking the radioactivity of the control containing no test substance as (A), taking the radioactivity of the blank containing no enzyme as (B), and taking the radioactivity of the test substance as (C), and using the following equation.

[1] = system: urethra relaxation response; assay: Simultaneous measurement model for rat bladder contraction/urethra relaxation responses; assay type: in vivo; conditions: female SD rat, increase relative to the solvent administration group, read-out: Ratio with increased urethra relaxation time during voiding (vs vehicle) (%)
Protocol: Simultaneous measurement of the bladder contraction and urethra relaxation responses using a rat was carried out with a partial modification of a method in Wibberley et al. (Wibberley, A., et al., Br. J. Pharmacol., 136: pp. 399-414 (2002)). That is, a female Sprague-Dawley (SD) rat (Charles River Laboratories Japan, Inc.) was anesthetized with urethane, and the bladder was exposed by a midline incision in the lower abdomen. A double lumen cannula (a cannula having a dual structure by PE190 and PE50) from the bladder apex was inserted into the bladder, and the bladder apex and the cannula were fixed by sutures at a point where the tip reached the proximal urethra. While infusing physiological saline into the urethra through the outer cannula, the urethral inner pressure was measured by a pressure transducer through the inner cannula with a saline solution infused into the urethra through the outer cannula. On the other hand, a single cannula (PESO) was inserted into the bladder from the bladder apex and placed therein. The inner pressure of the bladder was measured through this cannula. After a postoperative stabilization period had passed, physiological saline was infused into the bladder through the cannula of the bladder apex to cause a bladder contraction reaction, and thus cause a urethra relaxation response accompanying the bladder contraction reflex. The test substance was administered intravenously or intraduodenally.

Chain of PDE9 (O76083 whole entry): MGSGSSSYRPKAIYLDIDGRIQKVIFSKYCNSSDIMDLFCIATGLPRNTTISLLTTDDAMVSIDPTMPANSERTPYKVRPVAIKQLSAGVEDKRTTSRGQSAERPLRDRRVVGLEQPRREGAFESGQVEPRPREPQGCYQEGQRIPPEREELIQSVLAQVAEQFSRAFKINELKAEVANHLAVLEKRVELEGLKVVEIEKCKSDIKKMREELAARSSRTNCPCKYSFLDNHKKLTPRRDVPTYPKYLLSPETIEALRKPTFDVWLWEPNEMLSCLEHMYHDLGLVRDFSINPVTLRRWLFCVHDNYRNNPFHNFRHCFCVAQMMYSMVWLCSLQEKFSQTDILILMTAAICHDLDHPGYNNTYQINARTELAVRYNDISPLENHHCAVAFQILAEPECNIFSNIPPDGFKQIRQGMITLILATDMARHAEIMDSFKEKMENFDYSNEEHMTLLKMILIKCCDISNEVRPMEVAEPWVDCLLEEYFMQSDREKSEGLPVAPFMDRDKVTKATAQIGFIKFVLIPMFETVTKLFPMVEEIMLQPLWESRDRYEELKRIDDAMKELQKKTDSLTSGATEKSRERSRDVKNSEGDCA

IC50 (PDE9) | melting point | Compound | response vs control in vivo at 1 mg/kg [1]
9.3 nM | 240 to 242 °C | COCCCCN1CCN(C(=O)c2cc3c(cc2C)[nH]c(=O)c2cnn(C4CCOCC4)c23)CC1.Cl [Example 84] | 154%
14 nM | 209 to 210 °C | Cc1cc2[nH]c(=O)c3cnn(C4CCOCC4)c3c2cc1C(=O)N1CCC(OC[C@H](C)F)CC1 [Example 95] | 166%

From patent US8822448B2, “Pyrazoloquinoline compound” (Astellas Pharma Inc., priority 2010, dated 2014)
